Data published in patent US10479793B2, “Imidazopyridazine compounds useful as modulators of IL-12, IL-23 and/or IFN alpha responses” (BRISTOL-MYERS SQUIBB COMPANY, priority 2015, dated 2019).
Where two headings read alike, the source gives them in different places.

How the values were obtained:
[1] = biological target: T1, recombinantly expressed His-tagged protein corresponding to amino acids 575-869 of human Tyk2 (Homo sapiens, UniProt P29597); assay: Probe displacement assay (scintillation proximity, tritiated probe); assay type: binding; details: His-tagged Tyk2 (575-869) 2.5 nM, 40 nM radiolabeled probe, 30 minutes at room temperature
T1 construct: made in house
T1 sequence (P29597 with tags, fused parts or gaps): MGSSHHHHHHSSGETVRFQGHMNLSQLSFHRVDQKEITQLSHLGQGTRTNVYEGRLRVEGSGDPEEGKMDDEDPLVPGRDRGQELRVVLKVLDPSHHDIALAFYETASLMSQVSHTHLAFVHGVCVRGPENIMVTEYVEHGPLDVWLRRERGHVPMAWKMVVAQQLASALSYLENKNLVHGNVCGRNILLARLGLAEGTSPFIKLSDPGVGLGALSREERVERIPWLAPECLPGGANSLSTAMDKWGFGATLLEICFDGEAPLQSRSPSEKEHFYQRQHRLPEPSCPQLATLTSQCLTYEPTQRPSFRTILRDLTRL
Description: The preparation of radiolabeled probe, (R)—N-(1-(3-(8-methyl-5-(methylamino)-8H-imidazo[4,5-d]thiazolo[5,4-b]pyridin-2-yl)phenyl)ethyl)-2-([^3H]methylsulfonyl)benzamide, was performed as described below: […]

[2] = tested on: IL-23 stimulated Kit225 T cells with a stably-integrated STAT-dependent luciferase reporter; assay: Kit225 T cell assay, IL-23 stimulated STAT-dependent luciferase reporter; assay type: cell-based, human
Description: (§1) Kit225 T cells with a stably-integrated STAT-dependent luciferase reporter were plated in RPMI (GIBCO) containing 10% heat-inactivated FBS (GIBCO) and 100 U/mL PenStrep (GIBCO). The cells were then stimulated with either 20 ng/mL human recombinant IL-23 or 200 U/mL human recombinant IFNα (PBL InterferonSource) for 5-6 hours. Luciferase expression was measured using the STEADY-GLO Luciferase Assay System (PROMEGA) according to the manufacturer's instructions.

[3] = tested on: IFNα stimulated Kit225 T cells with a stably-integrated STAT-dependent luciferase reporter; assay: Kit225 T cell assay, IFNα stimulated STAT-dependent luciferase reporter; assay type: cell-based, human
Description: as §1

[4] = Homo sapiens, KIT225, 20 ng/mL human recombinant IL-23, 5-6 hours, luciferase, read-out: IL-23 Kit225 Reporter, (IC50)
[5] = Homo sapiens, KIT225, 200 U/mL human recombinant IFNα, 5-6 hours, luciferase, read-out: IFNa Kit225 Reporter, (IC50)
[6] = KIT225, 20 ng/mL human recombinant IL-23, 5-6 hours, luciferase, read-out: IL-23 Kit225 Reporter, (IC50)
[7] = KIT225, 200 U/mL human recombinant IFNα, 5-6 hours, luciferase, read-out: IFNa Kit225 Reporter, (IC50)
[8] = Homo sapiens, KIT225, read-out: IFNa Kit225 Reporter, (IC50, uM)

Structure (SMILES)	EC50 [1] [nM]	IC50 [2, 4] [µM]	IC50 [3, 5] [µM]	IC50 [2, 6] [µM]	IC50 [3, 7] [µM]	IC50 ([2]; Homo sapiens, KIT225, read-out: IL-23 Kit225 Reporter, (IC50, uM)) [µM]	IC50 [3, 8] [µM]
CNc1cc(Nc2cncc(C)c2)nn2c(C(=O)NC3CC3)cnc12 [Example 96]	7.18	0.51	0.6				
CNc1cc(Nc2cc(F)cc(C(F)(F)F)c2)nn2c(C(=O)NC3CCC3)cnc12 [Example 4]	6.85	0.81	0.32				
CNc1cc(Nc2cccc3c2OCCO3)nn2c(C(=O)NCC(C)(C)O)cnc12 [Example 82]	10			0.18	0.09		
CNc1cc(Nc2cc(F)cc(F)c2OC)nn2c(C(N)=O)cnc12 [Example 83]	5.76			0.17	0.06		
CNc1cc(Nc2cccc(N3CCOC3=O)n2)nn2c(C(=O)NC3CC3)cnc12 [Example 87]	4.31			0.09	0.06		
O=C(NC1CCC1)c1cnc2c(NC3CC3)cc(Nc3cc(F)cc(F)c3F)nn12 [Example 44]	60			1.46	1.39		
CCNC(=O)c1cnc2c(NC3CC3)cc(Nc3cc(C#N)cc(C(F)(F)F)c3)nn12 [Example 36]	350			3.33	12.5		
Cc1cc(F)cc(Nc2cc(NCC(F)(F)F)c3ncc(C(N)=O)n3n2)c1 [Example 59]	160			9.48	12.5		
CNc1cc(Nc2cncc(OC)c2)nn2c(C(=O)NC3CC3)cnc12 [Example 93]	10	1.1	0.41				
Cc1cc(C)cc(Nc2nc(NC3CC3)c3ncc(C(N)=O)n3n2)c1 [Example 70]	80			11.2	12.5		
O=C(NC1CC1)c1cnc2c(NCCN3CCOCC3)cc(Nc3cccc4c3OCCO4)nn12 [Example 110]	7.52			0.16	0.12		
CNc1cc(Nc2cccnc2OC)nn2c(C(=O)NC3CCC3)cnc12 [Example 27]	2.7	0.04	0.01				
CNc1cc(Nc2cc(F)ccc2F)nn2c(C(N)=O)cnc12 [Example 6]	4.21			0.12	0.09		
CNc1nc(Nc2ccccc2OC)nn2c(C(N)=O)cnc12 [Example 74]	10			0.3	0.2		
COCCNc1cc(Nc2cc(C)cc(C)c2)nn2c(C(N)=O)cnc12 [Example 56]	70			2.12	1.79		
CCNC(=O)c1ncccc1Nc1cc(NC)c2ncc(C(=O)NC3CC3)n2n1 [Example 103]	160					0.47	0.36
CNc1cc(Nc2cccnc2C)nn2c(C(=O)NC3CC3)cnc12 [Example 97]	30	0.42	0.65				
CNc1cc(Nc2cccnc2-n2nc(C)cc2C(F)(F)F)nn2c(C(=O)NC3CC3)cnc12 [Example 100]	140			12.5	12.5		
Cc1cc(F)cc(Nc2cc(NC3CC3)c3ncc(C(=O)NC4CC4)n3n2)c1 [Example 38]	20	0.79	0.58				
CNc1cc(Nc2ccccc2OC)nn2c(C(=O)NC3CC3)cnc12 [Example 77]	4.02	0.03	0.01				
CNc1cc(Nc2cccc(-n3cccn3)n2)nn2c(C(=O)NC3CC3)cnc12 [Example 85]	9.31			0.04	0.03		
CNc1cc(Nc2cc(F)cc(F)c2OC)nn2c(C(=O)NCC(C)(C)C)cnc12 [Example 16]	7.04			0.24	0.09		
CNc1cc(Nc2cccnc2-n2cccn2)nn2c(C(=O)NC3CCCC3O)cnc12 (stereo not shown) [Example 28]	60			0.33	0.45		
CNc1cc(Nc2cccnc2-n2ccc(C(F)(F)F)n2)nn2c(C(=O)NC3CC3)cnc12 [Example 99]	570						
Cc1cc(F)cc(Nc2ccc3ncc(C(=O)NC4CC4)n3n2)c1 [Example 68]	2.26	0.95	0.86				
Cc1cc(C)cc(Nc2cc(N)c3ncc(C(N)=O)n3n2)c1 [Example 67]	10			0.7	0.73		
CNc1cc(Nc2cc(C)cc(C)c2)nn2c(C(=O)NC3CC3)cnc12 [Example 114]							0.1
CNc1cc(Nc2cc(C)cc(C)c2)nn2c(C(=O)N3CC(O)C3)cnc12 [Example 7]	250		3.3				
